Laboratory results from patent publication US20240109917A1 (ACTELION PHARMACEUTICALS LTD, priority 2020, published 2024).

Tests used:
[1] = molecular target: His6-TEV-PDGFRβ (557-1016) (Homo sapiens (Human), UniProt P09619); assay: PDGFRβ HTRF Assay; type: biochemical; conditions: read-out: PDGFR HTRF IC50
Description: Instrumentation: a. Compound liquid handling: LabCyte Echo; b. Reagent liquid handling: Thermo Scientific Multidrop Combi; c. BMG PHERAStar multilabel plate reader.
Protein Reagent: His6-TEV-PDGFRβ Protein Prep prepared at Accelagen.
(§1) II. Methods and Procedures
Assay buffer stock solution, contains 50 mM Hepes, 10 mM MgCl2, 1 mM EGTA, and 0.01% Brij-35, 0.01% ovalbumin, 2 mM DTT at pH 7.5, in molecular biology grade water. Store at room temperature.
DTT, 2 M in molecular biology grade water, store at −20° C. in aliquots.
Ovalbumin, 10% or 100 mg/mL, prepare fresh on experimental day.
PDGFRβ, 116 μM (PDGFRb_08 Prep 02), produced at Accelagen. Store at −80° C. in aliquots.
TK-biotin peptide, […] in molecular biology grade water, store at −20° C. in aliquots.
ATP, 100 mM in molecular biology grade water, store at −20° C. in aliquots.
HTRF KinEASE-TK kit: Allow the contents of the Cisbio kit to warm up to room temperature before use. This kit contains HTRF detection buffer, TK-Antibody labeled with Eu^3+-cryptate, TK-substrate biotin and Streptavidin-XL665.
TK Substrate-Biotin, reconstitute 500 μg lyopholized with 574 μL molecular biology grade water to prepare a 500 μM stock; After use, aliquot the rest and store at −20° C.
TK Antibody-Cryptate, reconstitute lyophilized with 1 mL of molecular biology grade water (100× solution) then add 99 mL detection buffer to prepare a ready to use TK-antibody-cryptate solution; the concentration of the TK-antibody-cryptate reagent is not known. After use, aliquot the rest and store at −20° C.
Streptavidin-XL665, reconstitute 3 mg lyophilized with 3 mL molecular biology grade water to prepare a 1 mg/mL or 16.67 μM stock; MW=60 kDa; After use, aliquot the rest and store at −20° C.
Freshly Prepared Solutions:
Assay buffer. Dilute 5× Kinase buffer 5-fold with molecular biology grade water and add DTT to 2 mM and ovalbumin to 0.1 mg/mL (or 0.01%).
2× protein solution. Make a working solution of […] PDGFRβ in assay buffer. Keep on ice until use to maintain enzyme stability.
2× substrate solution. Make a working solution of 1.6 mM ATP and 1 μM TK-substrate biotin peptide in assay buffer.
3× quench/detection solution. Make a working solution of 0.1875 μM SA-XL665 and the TK-antibody cryptate diluted by 12 of total quench/detection volume in assay buffer.
Keep final streptavidin/biotin ratio at 1 to 8.
Example of 3× quench/detection solution preparation: 8 mL total volume.
TK antibody-cryptate in detection buffer—4000 μL
The kinase reaction is stopped by the addition of the detection reagents which contain EDTA (detection step).
Assay in white ProxiPlate 384-well
Step 1. Dispensing inhibitors/DMSO and low control: Using the ECHO 555 acoustic dispenser, spot desired compound serial dilutions in DMSO, NEAT DMSO to represent the uninhibited enzyme control, and 10 μM final [imatinib] to the represent the 100% inhibited enzyme control
Step 2. PDGFRβ E+I pre-incubation: Add 2 μL 2× protein solution to columns 1-24 using the Multidrop Combi. Centrifuge at 1000 rpm for 1 min. Incubate 30 min at RT
Step 2. Enzymatic reaction: Add 2 μL substrate solution to columns 1-24 to initiate the reaction using the Multidrop Combi; cover/seal the assay plate to reduce evaporation. Centrifuge at 1000 rpm for 1 min. Incubate at room temperature for 3 hours.
Step 3. Quench/Detection: Add 2 μl 3× quench/detection solution to columns 1-24 using the Multidrop Combi; cover/seal the plate. Centrifuge 1 min 1000 rpm. Incubate at RT for 60 min. Read the plate in PHERAstar (or similar instrument) on HTRF setting at excitation 337 nm—dual emission—665/620 nm ratio.
(§2) III. Calculations and Formulas
HTRF ratio values calculated by the instrument (Ratio is acceptor counts/donor counts*10,000) is exported from the plate reader and used in data analysis. […] Assay statistics can include Robust Z′ and Signal to Background.
% Inhibition Calculation: Percent inhibition will be calculated for sample wells based on the equation: […]

[2] = molecular target: Tb-labeled inactive PDGFRβ (Homo sapiens (Human), UniProt P09619); assay: PDGFRβ LanthaScreen Assay; type: binding; conditions: read-out: PDGFR Lantha IC50
Sequence of Tb-labeled inactive PDGFRβ (P09619 33-1106): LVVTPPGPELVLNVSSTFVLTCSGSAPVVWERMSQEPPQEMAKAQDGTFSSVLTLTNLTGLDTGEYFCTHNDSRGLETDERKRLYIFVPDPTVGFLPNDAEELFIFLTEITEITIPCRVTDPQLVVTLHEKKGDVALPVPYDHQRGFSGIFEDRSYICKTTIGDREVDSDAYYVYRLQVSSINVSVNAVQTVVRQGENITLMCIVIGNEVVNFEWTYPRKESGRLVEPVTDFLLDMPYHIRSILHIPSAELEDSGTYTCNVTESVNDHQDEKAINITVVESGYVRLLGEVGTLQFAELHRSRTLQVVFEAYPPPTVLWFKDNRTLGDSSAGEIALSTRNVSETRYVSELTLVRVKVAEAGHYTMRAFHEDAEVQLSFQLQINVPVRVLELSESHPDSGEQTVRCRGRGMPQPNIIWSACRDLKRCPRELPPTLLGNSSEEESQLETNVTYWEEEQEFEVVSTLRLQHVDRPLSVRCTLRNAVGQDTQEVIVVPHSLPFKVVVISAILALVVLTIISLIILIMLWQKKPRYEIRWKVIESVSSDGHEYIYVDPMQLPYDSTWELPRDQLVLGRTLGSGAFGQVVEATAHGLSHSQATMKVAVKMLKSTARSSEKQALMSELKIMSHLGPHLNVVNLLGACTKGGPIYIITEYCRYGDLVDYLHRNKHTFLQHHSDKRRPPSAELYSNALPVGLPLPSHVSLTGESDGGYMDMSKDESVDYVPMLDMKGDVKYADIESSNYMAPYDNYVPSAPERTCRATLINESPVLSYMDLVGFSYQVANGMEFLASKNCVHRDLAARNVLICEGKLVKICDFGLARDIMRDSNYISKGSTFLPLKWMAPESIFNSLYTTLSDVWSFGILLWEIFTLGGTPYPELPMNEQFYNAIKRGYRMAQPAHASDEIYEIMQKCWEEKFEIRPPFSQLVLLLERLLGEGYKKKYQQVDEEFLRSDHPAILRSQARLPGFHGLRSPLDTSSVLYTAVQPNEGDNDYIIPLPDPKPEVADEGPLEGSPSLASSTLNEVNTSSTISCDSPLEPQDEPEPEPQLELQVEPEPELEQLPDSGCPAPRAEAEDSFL

VEGFR2, unphosphorylated = VEGFR2, unphosphorylated (Homo sapiens (Human), UniProt P35968); assay: VEGFR ADP GLO Assay; type: biochemical
Sequence of VEGFR2, unphosphorylated (P35968 20-1356): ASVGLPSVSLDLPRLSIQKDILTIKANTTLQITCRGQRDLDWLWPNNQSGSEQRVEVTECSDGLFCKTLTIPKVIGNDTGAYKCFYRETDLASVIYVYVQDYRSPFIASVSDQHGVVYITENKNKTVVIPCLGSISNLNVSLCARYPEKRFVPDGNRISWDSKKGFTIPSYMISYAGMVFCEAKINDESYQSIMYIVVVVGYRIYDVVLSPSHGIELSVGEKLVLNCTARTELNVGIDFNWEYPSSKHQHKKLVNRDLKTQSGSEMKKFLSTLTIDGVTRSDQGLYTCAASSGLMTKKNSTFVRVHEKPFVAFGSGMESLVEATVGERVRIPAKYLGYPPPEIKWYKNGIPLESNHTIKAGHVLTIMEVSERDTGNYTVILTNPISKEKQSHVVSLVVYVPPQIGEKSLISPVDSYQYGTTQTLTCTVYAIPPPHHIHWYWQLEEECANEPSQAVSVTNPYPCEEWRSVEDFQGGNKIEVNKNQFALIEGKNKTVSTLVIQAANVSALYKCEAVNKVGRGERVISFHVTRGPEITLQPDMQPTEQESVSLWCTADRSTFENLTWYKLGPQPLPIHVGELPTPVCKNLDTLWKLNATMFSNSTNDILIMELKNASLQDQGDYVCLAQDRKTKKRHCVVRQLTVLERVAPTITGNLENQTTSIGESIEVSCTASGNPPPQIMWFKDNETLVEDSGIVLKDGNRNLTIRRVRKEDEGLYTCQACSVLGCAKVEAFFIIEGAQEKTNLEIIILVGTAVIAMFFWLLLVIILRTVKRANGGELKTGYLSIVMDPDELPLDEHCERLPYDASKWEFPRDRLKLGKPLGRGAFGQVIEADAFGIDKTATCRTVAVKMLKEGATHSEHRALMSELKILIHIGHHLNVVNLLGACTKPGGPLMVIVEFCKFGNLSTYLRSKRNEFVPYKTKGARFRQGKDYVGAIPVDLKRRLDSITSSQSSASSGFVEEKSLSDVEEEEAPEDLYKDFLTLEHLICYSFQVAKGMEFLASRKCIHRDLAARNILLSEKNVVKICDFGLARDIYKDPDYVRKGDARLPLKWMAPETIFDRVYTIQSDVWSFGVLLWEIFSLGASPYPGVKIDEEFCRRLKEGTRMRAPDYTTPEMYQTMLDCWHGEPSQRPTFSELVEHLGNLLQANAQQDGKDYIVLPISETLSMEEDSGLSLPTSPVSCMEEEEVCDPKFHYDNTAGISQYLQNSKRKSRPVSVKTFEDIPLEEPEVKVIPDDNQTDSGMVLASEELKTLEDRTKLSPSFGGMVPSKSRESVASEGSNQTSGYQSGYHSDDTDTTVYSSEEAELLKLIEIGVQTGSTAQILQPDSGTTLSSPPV
Description: as §1
Assay buffer stock contains 50 mM HEPES pH7.5, 10 mM MgCl2, 0.01% Brij-35, and 1 mM EGTA.
Unphosphorylated VEGFR2. […] Store at −80° C. in aliquots.
Sonicate 10 mg/ml Srctide solution for 10 minutes and then vacuum filter.
Freshly Prepared Solutions
2× kinase solution. Make a working solution of 10 nM unphosphorylated VEGFR2 in Assay buffer. Vacuum filter 2× kinase solution prior to running assay. Keep on ice until use.
2× substrate/ATP solution. Make a working solution of 2 mg/mL srctide and 2.4 mM ATP in Assay buffer. Keep on ice until use.
Step 1. Dispensing inhibitors/controls: Using Echo, dispense 10 nL/well compound serial dilutions in DMSO to columns 1-22 (in 384-well plates) or columns 1-44 (in 1536-well plates). Dilution series=11 pt, 3-fold dilutions. The top compound concentration in the source plate is 4 mM. The top compound concentration in the assay plate is 10 uM. Using Echo, dispense 10 nl/well DMSO to column 23 (in 384-well plates) or columns 45-47 (in 1536-well plates). […] These wells will serve as positive control wells.
Step 2. Pre-incubation of inhibitors with kinase: Add 2 μL/well 2× kinase solution. Centrifuge at 1000 rpm for 1 min. Incubate at room temperature for 30 min.
Step 3. Kinase cascade reaction: Add 2 μL/well 2× substrate/ATP solution to initiate kinase reactions. Centrifuge at 1000 rpm for 1 min. Incubate at room temperature for 180 min.
Final concentrations of components in the assay:
Step 4. Quench: Add 2 uL/well ADP Glo Reagent+0.05% CHAPS. Centrifuge at 1000 rpm for 1 min; Incubate at room temperature for one hour.
Step 5. Detection: Add 2 uL/well Kinase Detection Reagent+0.05% CHAPS. Centrifuge at 1000 rpm for 1 min; Incubate at room temperature for 1 hour; Read Luminescence on a plate reader.
as §2
IC50 values are determined from a 4-parameter fit, using the following equation: Y=Bottom+(Top−Bottom)/(1+10^(Log IC50-X)*Hill slope) where X=log10 of the compound concentration; top can be defined by PC; bottom defined by NC.

Sequence of His6-TEV-PDGFRβ (557-1016) (P09619 557-1016): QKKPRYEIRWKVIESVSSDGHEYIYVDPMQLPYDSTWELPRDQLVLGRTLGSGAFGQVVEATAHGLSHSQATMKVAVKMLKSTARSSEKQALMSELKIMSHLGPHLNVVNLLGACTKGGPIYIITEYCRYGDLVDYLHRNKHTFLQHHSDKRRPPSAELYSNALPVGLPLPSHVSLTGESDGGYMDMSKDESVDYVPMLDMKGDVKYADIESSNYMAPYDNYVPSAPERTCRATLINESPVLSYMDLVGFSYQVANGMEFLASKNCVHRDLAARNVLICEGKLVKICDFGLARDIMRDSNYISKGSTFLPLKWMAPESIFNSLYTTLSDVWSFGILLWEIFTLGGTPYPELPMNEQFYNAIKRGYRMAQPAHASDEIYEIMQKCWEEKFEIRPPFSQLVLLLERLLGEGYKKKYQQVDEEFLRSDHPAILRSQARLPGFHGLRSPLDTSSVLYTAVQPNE

| SMILES | IC50 [1] | IC50 [2] | IC50 (VEGFR2, unphosphorylated) |
| --- | --- | --- | --- |
| Cc1ncc(C(=O)NCCNC2CCC2)cc1NC(=O)c1cnn2cc(-c3cnn4c3CCC4)sc12 [Example 491, N-(5-((2-(cyclobutylamino)ethyl)carbamoyl)-2-methylpyridin-3-yl)-2-(5,6-dihydro-4H-pyrrolo[1,2-b]pyrazol-3-yl)pyrazolo[5,1-b]thiazole-7-carboxamide] | 0.3 nM | 4.9 nM | > 7500 nM |
| Cc1ncc(C(=O)NCCN2CCCC2(C)C)cc1NC(=O)c1cnn2cc(-c3ccc(N)nc3)sc12 [Example 130, 2-(6-aminopyridin-3-yl)-N-(5-((2-(2,2-dimethylpyrrolidin-1-yl)ethyl)carbamoyl)-2-methylpyridin-3-yl)pyrazolo[5,1-b]thiazole-7-carboxamide] | 0.5 nM | 4.3 nM | > 7500 nM |
| Cc1ccc(-c2cn3ncc(C(=O)Nc4cc(C(=O)NCCN5CCCC5(C)C)cnc4C)c3s2)cn1 [Example 136, N-(5-((2-(2,2-dimethylpyrrolidin-1-yl)ethyl)carbamoyl)-2-methylpyridin-3-yl)-2-(6-methylpyridin-3-yl)pyrazolo[5,1-b]thiazole-7-carboxamide] | 1.4 nM | 1 nM | > 7500 nM |
| Cc1ncc(C(=O)NCCN2CCCC2(C)C)cc1NC(=O)c1cnn2cc(-c3cccc(C(=O)O)c3)sc12 [Example 134, 3-(7-((5-((2-(2,2-dimethylpyrrolidin-1-yl)ethyl)carbamoyl)-2-methylpyridin-3-yl)carbamoyl)pyrazolo[5,1-b]thiazol-2-yl)benzoic acid] | 2.9 nM | 13.9 nM | > 7500 nM |
| Cc1ncc(NC(=O)CCC2CCCN2C)cc1NC(=O)c1cnn2cc(-c3cnn(C)c3)sc12 (stereo not drawn) [Example 492, 2-(1-methyl-1H-pyrazol-4-yl)-N-(2-methyl-5-(3-(1-methylpyrrolidin-2-yl)propanamido)pyridin-3-yl)pyrazolo[5,1-b]thiazole-7-carboxamide] | 0.7 nM | 15 nM | > 7500 nM |
| Cc1ncc(C(=O)NCCN2CCCC2(C)C)cc1NC(=O)c1cnn2cc(-c3cccnc3)sc12 [Example 135, N-(5-((2-(2,2-dimethylpyrrolidin-1-yl)ethyl)carbamoyl)-2-methylpyridin-3-yl)-2-(pyridin-3-yl)pyrazolo[5,1-b]thiazole-7-carboxamide] | 1.3 nM | 10.6 nM | > 7500 nM |
| Cc1ncc(C(=O)NCCN2CCCC2(C)C)cc1NC(=O)c1cnn2cc(-c3ccc(C(=O)O)cc3)sc12 [Example 133, 4-(7-((5-((2-(2,2-dimethylpyrrolidin-1-yl)ethyl)carbamoyl)-2-methylpyridin-3-yl)carbamoyl)pyrazolo[5,1-b]thiazol-2-yl)benzoic acid] | 1.5 nM | 6.3 nM | > 7500 nM |
| Cc1ncc(C(=O)NCCN2CCCC2(C)C)cc1NC(=O)c1cnn2cc(-c3cnn(C)n3)sc12 [Example 131, N-(5-((2-(2,2-dimethylpyrrolidin-1-yl)ethyl)carbamoyl)-2-methylpyridin-3-yl)-2-(2-methyl-2H-1,2,3-triazol-4-yl)pyrazolo[5,1-b]thiazole-7-carboxamide] | 1.7 nM | 9.1 nM | > 7500 nM |
| Cc1ncc(C(=O)NCCN2CC(C)(C)C2)cc1NC(=O)c1cnn2cc(-c3cnn4c3COCC4)sc12 [Example 489, 2-(6,7-dihydro-4H-pyrazolo[5,1-c][1,4]oxazin-3-yl)-N-(5-((2-(3,3-dimethylazetidin-1-yl)ethyl)carbamoyl)-2-methylpyridin-3-yl)pyrazolo[5,1-b]thiazole-7-carboxamide] | 0.5 nM | 5.5 nM | > 7500 nM |
| Cc1ncc(C(=O)NCCN2[C@H](C)CCC[C@@H]2C)cc1NC(=O)c1cnn2cc(-c3cnn(C)c3)sc12 [Example 164] | 1.5 nM | 6.2 nM | > 7500 nM |
| Cc1ncc(C(=O)NCCN2CCCC2(C)C)cc1NC(=O)c1cnn2cc(-c3ccnc(N(C)C)c3)sc12 [Example 490, 2-(2-(dimethylamino)pyridin-4-yl)-N-(5-((2-(2,2-dimethylpyrrolidin-1-yl)ethyl)carbamoyl)-2-methylpyridin-3-yl)pyrazolo[5,1-b]thiazole-7-carboxamide] | 0.3 nM | 2.3 nM | > 7500 nM |
| Cc1ncc(C(=O)NCCN2CCCC2(C)C)cc1NC(=O)c1cnn2cc(-c3ccc(=O)[nH]c3)sc12 [Example 137, N-(5-((2-(2,2-dimethylpyrrolidin-1-yl)ethyl)carbamoyl)-2-methylpyridin-3-yl)-2-(6-oxo-1,6-dihydropyridin-3-yl)pyrazolo[5,1-b]thiazole-7-carboxamide] | 2.2 nM | 24.4 nM | > 2500 nM |
| Cc1ncc(C(=O)NCCN2CCCC2(C)C)cc1NC(=O)c1cnn2cc(-c3ccc(=O)n(C)c3)sc12 [Example 138, N-(5-((2-(2,2-dimethylpyrrolidin-1-yl)ethyl)carbamoyl)-2-methylpyridin-3-yl)-2-(1-methyl-6-oxo-1,6-dihydropyridin-3-yl)pyrazolo[5,1-b]thiazole-7-carboxamide] | 3.7 nM | 39.6 nM | > 7500 nM |
